The results in this text go back to ChEMBL document CHEMBL3352338, “Development and biological evaluation of potent and selective c-KIT(D816V) inhibitors” (J Med Chem, 2014).

The target in assay [1] is Aurora kinase B (Homo sapiens) (UniProt Q96GD4). The assay can be described thus: Inhibition of AURKB (unknown origin) at 1 uM by KINOMEscanning assay relative to control; values are per cent of control.
Assay [2] concerns the target Serine/threonine-protein kinase PLK1 (Homo sapiens) (UniProt P53350). Put plainly: Inhibition of PLK1 (unknown origin) at 1 uM by KINOMEscanning assay relative to control; values are per cent of control.
For assay [3], the system named is Serine/threonine-protein kinase B-raf (Homo sapiens), P15056 [V600E]. Put plainly: Inhibition of BRAF V600E mutant (unknown origin) at 1 uM by KINOMEscanning assay relative to control; values are per cent of control.
Assay [4] relates to Mast/stem cell growth factor receptor Kit (Homo sapiens), P10721 [D816V]. Put plainly: Inhibition of c-KIT D816V mutant (unknown origin) at 1 uM by KINOMEscanning assay relative to control; values are per cent of control.
Assay [5] concerns the target Cyclin-dependent kinase 19 (Homo sapiens) (UniProt Q9BWU1). Put plainly: Inhibition of CDK11 (unknown origin) at 1 uM by KINOMEscanning assay relative to control; values are per cent of control.
For assay [6], the target named is Fibroblast growth factor receptor 1 (Homo sapiens) (UniProt P11362). The assay can be described thus: Inhibition of FGFR1 (unknown origin) at 1 uM by KINOMEscanning assay relative to control; values are per cent of control.
Fibroblast growth factor receptor 1 (Homo sapiens), sequence (P11362 22-822 limits assumed): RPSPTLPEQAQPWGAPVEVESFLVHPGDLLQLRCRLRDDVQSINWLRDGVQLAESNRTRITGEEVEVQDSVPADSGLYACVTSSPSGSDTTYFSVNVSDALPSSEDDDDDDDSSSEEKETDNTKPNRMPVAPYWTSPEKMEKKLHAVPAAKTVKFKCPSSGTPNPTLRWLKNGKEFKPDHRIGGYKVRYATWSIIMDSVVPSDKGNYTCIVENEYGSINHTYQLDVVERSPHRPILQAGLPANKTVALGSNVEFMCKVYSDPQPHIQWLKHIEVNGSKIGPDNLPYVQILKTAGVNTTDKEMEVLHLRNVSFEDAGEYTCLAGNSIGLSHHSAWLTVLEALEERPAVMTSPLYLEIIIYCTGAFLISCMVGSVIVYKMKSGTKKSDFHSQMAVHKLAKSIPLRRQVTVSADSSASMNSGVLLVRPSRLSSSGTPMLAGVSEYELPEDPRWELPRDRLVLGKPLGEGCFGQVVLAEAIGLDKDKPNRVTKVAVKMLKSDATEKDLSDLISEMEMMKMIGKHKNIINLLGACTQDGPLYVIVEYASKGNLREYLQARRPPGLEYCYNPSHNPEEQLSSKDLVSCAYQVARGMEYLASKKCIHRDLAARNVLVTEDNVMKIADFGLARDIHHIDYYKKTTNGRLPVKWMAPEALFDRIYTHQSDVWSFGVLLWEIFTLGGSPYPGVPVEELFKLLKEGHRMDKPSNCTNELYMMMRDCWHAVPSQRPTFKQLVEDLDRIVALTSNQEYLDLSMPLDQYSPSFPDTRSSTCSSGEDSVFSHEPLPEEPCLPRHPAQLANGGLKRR
For assay [7], the target named is T1, 3-phosphoinositide-dependent protein kinase 1 (Homo sapiens) (UniProt O15530).
T1 sequence (whole entry): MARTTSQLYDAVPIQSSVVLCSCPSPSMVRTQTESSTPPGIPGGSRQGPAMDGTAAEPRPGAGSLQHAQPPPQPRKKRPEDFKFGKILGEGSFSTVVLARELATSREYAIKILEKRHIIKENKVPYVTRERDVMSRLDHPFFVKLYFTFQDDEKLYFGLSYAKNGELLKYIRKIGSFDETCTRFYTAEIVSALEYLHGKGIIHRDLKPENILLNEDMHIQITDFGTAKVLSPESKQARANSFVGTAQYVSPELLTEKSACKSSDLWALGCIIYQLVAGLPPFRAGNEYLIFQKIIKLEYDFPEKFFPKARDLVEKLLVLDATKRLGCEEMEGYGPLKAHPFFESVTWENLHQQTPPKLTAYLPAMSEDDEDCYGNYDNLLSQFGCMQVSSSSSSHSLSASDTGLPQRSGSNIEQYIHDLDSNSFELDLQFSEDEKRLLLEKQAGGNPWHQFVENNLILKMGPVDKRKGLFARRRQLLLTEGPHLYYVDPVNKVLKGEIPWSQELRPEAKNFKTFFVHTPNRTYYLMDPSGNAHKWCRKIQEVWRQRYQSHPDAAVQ
The assay can be described thus: Inhibition of PDPK1 (unknown origin) at 1 uM by KINOMEscanning assay relative to control; values are per cent of control.

Assay [8] addresses Calcium/calmodulin-dependent protein kinase type 1 (Homo sapiens) (UniProt Q14012). Put plainly: Inhibition of CAMK1 (unknown origin) at 1 uM by KINOMEscanning assay relative to control; values are per cent of control.
Assay [9] has as its target ALK tyrosine kinase receptor (Homo sapiens) (UniProt Q9UM73). The assay can be described thus: Inhibition of ALK (unknown origin) at 1 uM by KINOMEscanning assay relative to control; values are per cent of control.
For assay [10], the target named is Focal adhesion kinase 1 (Homo sapiens) (UniProt Q05397). Put plainly: Inhibition of FAK (unknown origin) at 1 uM by KINOMEscanning assay relative to control; values are per cent of control.
Assay [11] deals with Dual specificity mitogen-activated protein kinase kinase 2 (Homo sapiens) (UniProt P36507). The assay can be described thus: Inhibition of MEK2 (unknown origin) at 1 uM by KINOMEscanning assay relative to control; values are per cent of control.
Dual specificity mitogen-activated protein kinase kinase 2 (Homo sapiens), sequence (P36507 whole entry): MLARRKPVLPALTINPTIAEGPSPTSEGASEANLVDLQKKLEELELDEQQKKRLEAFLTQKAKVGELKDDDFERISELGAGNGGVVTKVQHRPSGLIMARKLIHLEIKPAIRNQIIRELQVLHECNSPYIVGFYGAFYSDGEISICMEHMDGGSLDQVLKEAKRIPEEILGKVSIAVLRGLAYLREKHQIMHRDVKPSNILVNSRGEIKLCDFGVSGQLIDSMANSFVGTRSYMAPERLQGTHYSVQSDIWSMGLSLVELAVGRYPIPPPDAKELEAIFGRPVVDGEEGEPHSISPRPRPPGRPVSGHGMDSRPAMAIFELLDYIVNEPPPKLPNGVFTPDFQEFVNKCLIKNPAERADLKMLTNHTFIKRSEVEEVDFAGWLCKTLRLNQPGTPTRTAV
Assay [12] addresses Mitogen-activated protein kinase 3 (Homo sapiens) (UniProt P27361). The assay can be described thus: Inhibition of ERK1 (unknown origin) at 1 uM by KINOMEscanning assay relative to control; values are per cent of control.
In assay [13] the target is T2, Aurora kinase A (Homo sapiens) (UniProt O14965).
T2 sequence (whole entry): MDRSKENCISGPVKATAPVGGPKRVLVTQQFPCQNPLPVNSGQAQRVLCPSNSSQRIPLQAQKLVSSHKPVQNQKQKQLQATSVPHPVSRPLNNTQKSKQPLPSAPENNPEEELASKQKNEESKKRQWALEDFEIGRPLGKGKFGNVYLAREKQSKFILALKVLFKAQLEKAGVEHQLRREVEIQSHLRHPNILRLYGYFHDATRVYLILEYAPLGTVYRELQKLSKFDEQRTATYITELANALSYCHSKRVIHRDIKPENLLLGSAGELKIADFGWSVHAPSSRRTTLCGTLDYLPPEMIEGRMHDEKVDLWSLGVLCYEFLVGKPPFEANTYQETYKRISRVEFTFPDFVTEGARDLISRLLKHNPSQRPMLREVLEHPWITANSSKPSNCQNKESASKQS
The assay can be described thus: Inhibition of AURKA (unknown origin) at 1 uM by KINOMEscanning assay relative to control; values are per cent of control.

The target of assay [14] is RAC-beta serine/threonine-protein kinase (Homo sapiens) (UniProt P31751). The assay can be described thus: Inhibition of AKT2 (unknown origin) at 1 uM by KINOMEscanning assay relative to control; values are per cent of control.
RAC-beta serine/threonine-protein kinase (Homo sapiens), sequence (P31751 whole entry): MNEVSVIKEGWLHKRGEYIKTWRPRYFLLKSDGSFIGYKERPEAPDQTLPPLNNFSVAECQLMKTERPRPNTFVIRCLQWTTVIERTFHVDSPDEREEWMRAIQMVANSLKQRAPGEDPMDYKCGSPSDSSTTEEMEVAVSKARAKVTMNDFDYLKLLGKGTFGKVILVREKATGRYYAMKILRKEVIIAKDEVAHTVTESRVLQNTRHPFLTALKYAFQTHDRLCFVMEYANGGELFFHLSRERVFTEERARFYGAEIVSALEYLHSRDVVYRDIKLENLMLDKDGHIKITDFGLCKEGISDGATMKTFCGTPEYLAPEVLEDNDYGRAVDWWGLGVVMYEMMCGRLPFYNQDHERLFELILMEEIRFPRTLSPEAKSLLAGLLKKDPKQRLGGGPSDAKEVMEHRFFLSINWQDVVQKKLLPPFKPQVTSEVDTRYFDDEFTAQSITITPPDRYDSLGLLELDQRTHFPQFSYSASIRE
Assay [15] deals with Tyrosine-protein kinase ABL1 (Homo sapiens), P00519 [T315I]. Put plainly: Inhibition of ABL T315I mutant (unknown origin) at 1 uM by KINOMEscanning assay relative to control; values are per cent of control.
The target in assay [16] is Serine/threonine-protein kinase pim-1 (Homo sapiens) (UniProt P11309). Put plainly: Inhibition of PIM1 (unknown origin) at 1 uM by KINOMEscanning assay relative to control; values are per cent of control.
For assay [17], the target named is Serine/threonine-protein kinase PAK 1 (Homo sapiens) (UniProt Q13153). The assay can be described thus: Inhibition of PAK1 (unknown origin) at 1 uM by KINOMEscanning assay relative to control; values are per cent of control.
Serine/threonine-protein kinase PAK 1 (Homo sapiens), sequence (Q13153 whole entry): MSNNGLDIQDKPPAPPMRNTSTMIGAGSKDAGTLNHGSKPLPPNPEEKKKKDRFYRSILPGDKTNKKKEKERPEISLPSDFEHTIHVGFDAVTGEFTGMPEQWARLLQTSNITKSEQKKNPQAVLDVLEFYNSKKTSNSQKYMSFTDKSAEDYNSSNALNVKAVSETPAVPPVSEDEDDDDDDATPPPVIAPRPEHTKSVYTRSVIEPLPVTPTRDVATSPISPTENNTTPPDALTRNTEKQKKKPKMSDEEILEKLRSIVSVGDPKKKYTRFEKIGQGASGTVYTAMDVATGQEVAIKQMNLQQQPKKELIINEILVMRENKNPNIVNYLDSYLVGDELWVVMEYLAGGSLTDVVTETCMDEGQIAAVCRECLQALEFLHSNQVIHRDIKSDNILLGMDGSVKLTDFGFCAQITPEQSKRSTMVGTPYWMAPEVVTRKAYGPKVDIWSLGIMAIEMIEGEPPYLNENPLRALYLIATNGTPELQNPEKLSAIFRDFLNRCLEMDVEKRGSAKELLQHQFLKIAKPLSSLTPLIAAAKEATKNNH
Assay [18] addresses Vascular endothelial growth factor receptor 2 (Homo sapiens) (UniProt P35968). Put plainly: Inhibition of VEGFR2 (unknown origin) at 1 uM by KINOMEscanning assay relative to control; values are per cent of control.

Vascular endothelial growth factor receptor 2 (Homo sapiens), sequence (P35968 whole entry): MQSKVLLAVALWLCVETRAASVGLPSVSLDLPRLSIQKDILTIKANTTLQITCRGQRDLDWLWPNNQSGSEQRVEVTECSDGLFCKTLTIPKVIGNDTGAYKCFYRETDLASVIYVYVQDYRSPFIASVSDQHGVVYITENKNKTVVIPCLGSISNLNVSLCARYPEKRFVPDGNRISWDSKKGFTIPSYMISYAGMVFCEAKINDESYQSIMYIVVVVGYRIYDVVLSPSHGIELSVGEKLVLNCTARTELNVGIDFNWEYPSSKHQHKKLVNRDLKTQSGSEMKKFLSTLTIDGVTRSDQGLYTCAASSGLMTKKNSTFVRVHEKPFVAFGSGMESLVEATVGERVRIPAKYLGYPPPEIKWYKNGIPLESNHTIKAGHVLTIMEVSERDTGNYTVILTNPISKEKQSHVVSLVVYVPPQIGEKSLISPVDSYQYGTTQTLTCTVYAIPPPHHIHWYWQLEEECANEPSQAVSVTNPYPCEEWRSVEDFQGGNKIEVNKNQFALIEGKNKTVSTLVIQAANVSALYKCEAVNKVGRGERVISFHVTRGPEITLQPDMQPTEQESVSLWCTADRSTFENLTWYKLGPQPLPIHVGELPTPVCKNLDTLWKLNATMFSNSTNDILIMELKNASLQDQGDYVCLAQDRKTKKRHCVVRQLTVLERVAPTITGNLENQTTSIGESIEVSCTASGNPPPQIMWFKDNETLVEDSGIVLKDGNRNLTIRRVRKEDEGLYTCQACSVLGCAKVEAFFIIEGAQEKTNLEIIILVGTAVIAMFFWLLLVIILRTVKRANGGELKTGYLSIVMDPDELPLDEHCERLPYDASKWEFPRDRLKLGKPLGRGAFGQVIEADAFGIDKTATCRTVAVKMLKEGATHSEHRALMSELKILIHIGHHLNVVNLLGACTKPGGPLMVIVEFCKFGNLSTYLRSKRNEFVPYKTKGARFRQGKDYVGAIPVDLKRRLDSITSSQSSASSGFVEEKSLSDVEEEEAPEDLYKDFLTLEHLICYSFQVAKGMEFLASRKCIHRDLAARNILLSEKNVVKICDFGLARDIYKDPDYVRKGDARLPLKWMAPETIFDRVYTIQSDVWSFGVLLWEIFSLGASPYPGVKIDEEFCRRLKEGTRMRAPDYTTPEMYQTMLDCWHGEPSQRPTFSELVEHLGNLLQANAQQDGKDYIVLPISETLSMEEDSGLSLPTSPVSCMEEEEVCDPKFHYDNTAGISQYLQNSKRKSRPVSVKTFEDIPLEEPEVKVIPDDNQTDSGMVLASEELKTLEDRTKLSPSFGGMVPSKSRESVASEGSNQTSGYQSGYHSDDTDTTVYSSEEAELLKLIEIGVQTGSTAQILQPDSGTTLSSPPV
Calcium/calmodulin-dependent protein kinase type 1 (Homo sapiens), sequence (Q14012 whole entry, looked up): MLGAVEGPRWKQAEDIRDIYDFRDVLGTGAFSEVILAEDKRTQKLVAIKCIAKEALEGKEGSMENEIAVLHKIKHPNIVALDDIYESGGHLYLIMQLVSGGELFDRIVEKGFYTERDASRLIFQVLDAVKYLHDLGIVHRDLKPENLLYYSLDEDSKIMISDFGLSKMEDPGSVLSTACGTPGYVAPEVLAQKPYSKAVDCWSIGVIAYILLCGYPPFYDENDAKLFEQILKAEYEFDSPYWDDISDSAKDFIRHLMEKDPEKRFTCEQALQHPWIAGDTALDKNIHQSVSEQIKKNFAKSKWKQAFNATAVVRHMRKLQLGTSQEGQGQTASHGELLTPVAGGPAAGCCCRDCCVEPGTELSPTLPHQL
Mitogen-activated protein kinase 3 (Homo sapiens), sequence (P27361 whole entry): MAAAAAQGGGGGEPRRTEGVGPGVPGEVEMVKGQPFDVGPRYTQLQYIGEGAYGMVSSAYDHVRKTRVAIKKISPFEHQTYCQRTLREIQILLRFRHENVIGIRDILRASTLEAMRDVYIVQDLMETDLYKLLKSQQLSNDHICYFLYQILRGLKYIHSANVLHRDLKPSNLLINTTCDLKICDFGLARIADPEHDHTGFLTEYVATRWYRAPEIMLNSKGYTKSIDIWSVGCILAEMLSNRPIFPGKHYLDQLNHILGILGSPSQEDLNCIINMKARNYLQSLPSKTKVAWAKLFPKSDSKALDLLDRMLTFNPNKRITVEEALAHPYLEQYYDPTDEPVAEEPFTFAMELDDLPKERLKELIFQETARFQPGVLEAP
Cyclin-dependent kinase 19 (Homo sapiens), sequence (Q9BWU1 whole entry): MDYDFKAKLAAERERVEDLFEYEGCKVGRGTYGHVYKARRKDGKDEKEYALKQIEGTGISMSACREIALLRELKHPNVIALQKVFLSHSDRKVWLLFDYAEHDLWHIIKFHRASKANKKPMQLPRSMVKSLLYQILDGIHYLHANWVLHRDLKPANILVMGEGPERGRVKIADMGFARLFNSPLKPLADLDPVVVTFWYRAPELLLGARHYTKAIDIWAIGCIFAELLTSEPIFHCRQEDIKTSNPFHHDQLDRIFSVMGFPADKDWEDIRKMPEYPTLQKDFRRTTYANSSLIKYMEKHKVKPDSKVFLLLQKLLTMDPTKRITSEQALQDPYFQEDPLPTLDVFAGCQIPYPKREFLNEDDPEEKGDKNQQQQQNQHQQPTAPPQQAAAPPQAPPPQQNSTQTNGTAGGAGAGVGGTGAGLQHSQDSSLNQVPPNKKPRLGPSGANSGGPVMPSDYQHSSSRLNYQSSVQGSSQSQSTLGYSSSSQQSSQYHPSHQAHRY

With `COc1ccc(-c2c[nH]c3ncc(-c4ccc(C(=O)N5CCOCC5)c(N)c4)cc23)cc1OC`, the residual activity worked out at 44% in assay [1]; 84% in assay [2]; 66% in [3]; 1.4% in [4]; 100% in assay [5]; 90% in assay [6]. The residual activity is 31% in assay [7]; 62% in [8]; 76% in assay [9]; 88% in [10]; 72% in assay [11]; 100% in assay [12]. Further, the residual activity in [13] came to 0.85%; in [14] it was 97%; in assay [15] it was 17%; in [16], 27%; in [17], 87%; in assay [18] it was 79%.

On to `COc1ccc(-c2cnc3[nH]cc(-c4ccc(OC)c(OC)c4)c3c2)cc1OC`, for which the residual activity is 82% in assay [1]; 98% in assay [2]; 88% in assay [3]; 0% in assay [4]; 3.8% in [5]; 89% in [6]. Moreover, the residual activity in [7] turned out to be 65%; in [8], 63%; in assay [9], 43%; in assay [10] it was 88%; in assay [11] it was 92%; in assay [12], 93%. Besides, the residual activity was found to be 13% in assay [13]; 100% in [14]; 51% in assay [15]; 68% in assay [16]; 85% in [17]; 96% in [18].

For `COc1cc(-c2c[nH]c3ncc(-c4cccc(N)c4)cc23)cc(OC)c1OC`, the residual activity in assay [1] turned out to be 31%; in assay [2] it was 100%; in assay [3], 34%; in [4], 2.1%; in assay [5], 96%; in assay [6], 100%. For the same molecule, the residual activity in assay [7] was determined as 100%; in [8], 53%; in assay [9] it was 33%; in assay [10], 92%; in [11], 74%; in assay [12], 23%. For the same molecule, the residual activity in assay [13] worked out at 8.9%; in [14], 100%; in assay [15], 47%; in assay [16] it was 88%; in assay [17] it was 89%; in assay [18], 96%.

With `COc1ccc(-c2c[nH]c3ncc(-c4cc(OC)c(OC)c(OC)c4)cc23)cc1OC`, the residual activity in [1] stood at 92%; in assay [2] it was 99%; in [3], 82%; in assay [4], 0%; in assay [5], 90%; in assay [6], 84%. Moreover, the residual activity is 76% in assay [7]; 61% in assay [8]; 40% in [9]; 92% in assay [10]; 93% in assay [11]; 88% in assay [12]. Moreover, the residual activity was determined as 25% in assay [13]; 100% in assay [14]; 48% in assay [15]; 71% in assay [16]; 83% in assay [17]; 97% in [18].

Turning to `COc1ccc(-c2cnc3[nH]cc(-c4ccc(OC)c(OC)c4)c3c2)cc1N`, the residual activity in [1] worked out at 85%; in assay [2], 84%; in assay [3] it was 78%; in assay [4], 0%; in assay [5], 79%; in [6], 92%. Also, the residual activity came out at 91% in assay [7]; 71% in assay [8]; 51% in assay [9]; 93% in assay [10]; 90% in assay [11]; 88% in assay [12]. Moreover, the residual activity in assay [13] came to 17%; in assay [14], 100%; in assay [15] it was 54%; in assay [16], 71%; in [17], 88%; in assay [18] it was 79%.
